Measured values published in patent publication US8754071B2 (priority 2011, dated 2014).
Like-named read-outs stand apart in the source and are kept apart here.

Biological target: T1, c-kit (Homo sapiens, UniProt P10721)
T1 construct: human Mo7e cells which endogenously express c-kit; endogenous in cells; host or cells: human Mo7e cells (promegakaryocytic leukemia line), stimulated with human recombinant SCF
Assay: Mo7e cell proliferation assay (SCF dependent proliferation)
Type: cell-based
Details: read-out: c-kit (Mo7e)
Protocol: Mo7e Cell Proliferation Assay The compounds of Table 1 and Table 2 were tested for inhibition of SCF dependent proliferation using human Mo7e cells which endogenously express c-kit in a 384 well format. […] After 48 hours of incubation at 37° C., cell viability was measured by adding 25 uL of CellTiter Glo (Promega) to the cells and the luminescence was measured by a […] camera (Molecular Devices). […] The IC50 value is given as that concentration of the test compound in question that provoke a response halfway between the baseline and maximum responses.

[1] = Table 2, human Mo7e cells stimulated with SCF, 48 hours, CellTiter Glo, 1% FBS
[2] = Table 2, values marked *: 20% FBS instead of 1% FBS
[3] = Table 1, human Mo7e cells stimulated with SCF, 48 hours, CellTiter Glo, 1% FBS

T1 sequence (P10721 26-976): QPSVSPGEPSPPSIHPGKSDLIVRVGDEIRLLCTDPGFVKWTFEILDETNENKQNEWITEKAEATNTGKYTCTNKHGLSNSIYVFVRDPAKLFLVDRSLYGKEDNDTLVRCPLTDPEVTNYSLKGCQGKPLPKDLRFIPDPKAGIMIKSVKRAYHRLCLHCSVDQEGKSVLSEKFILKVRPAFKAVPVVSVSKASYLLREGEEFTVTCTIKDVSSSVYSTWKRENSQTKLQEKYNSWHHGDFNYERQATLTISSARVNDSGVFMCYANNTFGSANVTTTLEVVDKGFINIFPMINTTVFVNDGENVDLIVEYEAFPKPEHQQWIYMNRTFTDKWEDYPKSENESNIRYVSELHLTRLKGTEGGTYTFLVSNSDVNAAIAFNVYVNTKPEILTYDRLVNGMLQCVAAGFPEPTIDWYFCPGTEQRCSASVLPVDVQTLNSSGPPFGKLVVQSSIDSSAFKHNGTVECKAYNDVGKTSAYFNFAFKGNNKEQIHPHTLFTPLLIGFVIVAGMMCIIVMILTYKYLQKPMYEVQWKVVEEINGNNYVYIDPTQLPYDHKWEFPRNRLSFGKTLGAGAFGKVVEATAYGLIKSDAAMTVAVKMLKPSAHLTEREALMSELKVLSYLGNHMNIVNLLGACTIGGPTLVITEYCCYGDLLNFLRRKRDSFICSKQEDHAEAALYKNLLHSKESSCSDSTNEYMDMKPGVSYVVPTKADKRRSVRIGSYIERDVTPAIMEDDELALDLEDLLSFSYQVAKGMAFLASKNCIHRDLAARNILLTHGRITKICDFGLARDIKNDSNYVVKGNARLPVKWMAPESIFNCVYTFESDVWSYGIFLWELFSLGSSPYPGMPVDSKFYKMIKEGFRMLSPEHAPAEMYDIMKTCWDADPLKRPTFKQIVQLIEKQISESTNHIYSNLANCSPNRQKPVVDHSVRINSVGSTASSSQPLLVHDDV

Compound | IC50 [1] | also measured
CC(=O)N1CCC(c2nc(-c3ccc(C)c(NC(=O)c4cnc5ccccn45)c3)no2)C1 (stereo not drawn) [F171] | 240 nM | 
COC(=O)N1CC(c2nc(-c3ccc(C)c(NC(=O)c4cnc5ccc(CO)cn45)c3)no2)C1 [F266] | 523 nM | 
Cc1ccc(-c2noc([C@@H]3CCCO3)n2)cc1NC(=O)c1cnc2ccccn12 [F104] |  | IC50 [2]: 224 nM
COC(=O)N1CCC[C@H]1Cc1nc(-c2ccc(C)c(NC(=O)c3cnc4ccccn34)c2)no1 [F40] |  | IC50 [3]: 94 nM
Cn1cc(S(=O)(=O)N2CC(c3nc(-c4ccc(F)c(NC(=O)c5cnc6ccccn56)c4)no3)C2)cn1 [F224] | 854 nM | 
Cc1ccc(-c2noc([C@@H]3CCCC(=O)N3)n2)cc1NC(=O)c1cnc2ccccn12 [F119] | 434 nM | 
CC(=O)N1CCC[C@H]1c1nc(-c2ccc(C)c(NC(=O)c3cnc4ccccn34)c2)no1 [F197] | 460 nM | 
COC(=O)N1CC(c2nc(-c3ccc(C)c(NC(=O)c4cnc5ccc(C(F)(F)F)cn45)c3)no2)C1 [F52, methyl 3-(3-(4-methyl-3-(6-(trifluoromethyl)imidazo[1,2-a]pyridine-3-carboxamido)phenyl)-1,2,4-oxadiazol-5-yl)azetidine-1-carboxylate] |  | IC50 [3]: 218 nM
CC(=O)N1CCC[C@@H]1c1nc(-c2ccc(C)c(NC(=O)c3cnc4ccccn34)c2)no1 [F269] | 1010 nM | 
Cn1ccc(S(=O)(=O)N2CC(c3nc(-c4ccc(F)c(NC(=O)c5cnc6ccccn56)c4)no3)C2)n1 [F221] | 851 nM | 
Cc1ccc(-c2noc(CN3CC(O)C3)n2)cc1NC(=O)c1cnc2ccccn12 [F131] | 738 nM | 
Cc1ccc(-c2noc([C@H](C)N3CC(F)(F)C3)n2)cc1NC(=O)c1cnc2ccccn12 [F50] |  | IC50 [3]: 77 nM
Cc1ccc(-c2noc(C[C@@H]3CCN(C(=O)OC(C)(C)C)C3)n2)cc1NC(=O)c1cnc2ccccn12 [F184] | 496 nM | 
COC(=O)N1CC(c2nc(-c3ccc(C)c(NC(=O)c4cnc5ccc(COCC(F)F)cn45)c3)no2)C1 [F95, methyl 3-(3-(3-(6-((2,2-difluoroethoxy)methyl)imidazo[1,2-a]pyridine-3-carboxamido)-4-methylphenyl)-1,2,4-oxadiazol-5-yl)azetidine-1-carboxylate] |  | IC50 [3]: 19 nM
Cc1ccc(-c2noc(CCC(=O)N3CCN(C)CC3)n2)cc1NC(=O)c1cnc2ccccn12 [F303] | 4640 nM | 
Cc1ccn2c(C(=O)Nc3cc(-c4noc(N5CCC(F)(F)C5)n4)ccc3C)cnc2c1 [F92] |  | IC50 [3]: 21 nM
O=C(Nc1cc(-c2noc(C3CN(S(=O)(=O)c4cccnc4)C3)n2)ccc1F)c1cnc2ccccn12 [F220] | 690 nM | 
Cc1ccc(-c2noc(CC3CCCOC3)n2)cc1NC(=O)c1cnc2ccccn12 (stereo not drawn) [F49] |  | IC50 [3]: 40 nM
COC(=O)N1CC(c2nc(-c3ccc(C)c(NC(=O)c4cnc5ccccn45)c3C)no2)C1 [F249] | 426 nM | 
Cc1ccc(-c2noc(C3CCCN(C(=O)OC(C)(C)C)C3)n2)cc1NC(=O)c1cnc2ccccn12 (stereo not drawn) [F282] |  | IC50 [2]: 1600 nM
Cc1ccc(-c2noc([C@@H]3CCCNC3)n2)cc1NC(=O)c1cnc2ccccn12 [F203] | 826 nM | 
Cc1ccc(-c2noc(CCC(=O)N3CCC(F)(F)C3)n2)cc1NC(=O)c1cnc2ccccn12 [F125] | 426 nM | 
Cc1ccc(-c2noc(C3CCC(O)CO3)n2)cc1NC(=O)c1cnc2ccccn12 (stereo not drawn) [F112] | 227 nM | 
Cc1ccc2ncc(C(=O)Nc3cc(-c4noc([C@@H]5CCN5)n4)ccc3C)n2c1 [F280] | 1310 nM | 

Compound | IC50 [1] | also measured
Cc1ccc(-c2noc(C3CN(S(=O)(=O)C4CCN(C(=O)OC(C)(C)C)C4)C3)n2)cc1NC(=O)c1cnc2ccccn12 (stereo not drawn) [F162] | 249 nM | 
CCCS(=O)(=O)N1CC(c2nc(-c3ccc(C)c(NC(=O)c4cnc5ccccn45)c3)no2)C1 [F16] |  | IC50 [3]: 35 nM
COC(=O)N1CCC[C@H](c2nc(-c3ccc(C)c(NC(=O)c4cnc5ccccn45)c3)no2)C1 [F208] | 134 nM | 
Cc1ccc(-c2nc(N3C[C@@H]4C[C@@H](C3)O4)no2)cc1NC(=O)c1cnc2ccccn12 [F3] |  | IC50 [3]: 90 nM
CCN1CC(c2nc(-c3ccc(C)c(NC(=O)c4cnc5ccccn45)c3)no2)C1 [F271] | 1120 nM | 
Cc1ccc(-c2noc(CCN3CCOCC3)n2)cc1NC(=O)c1cnc2ccccn12 [F180] | 169 nM | 
CC(=O)N1CCOC[C@@H]1c1nc(-c2ccc(C)c(NC(=O)c3cnc4ccccn34)c2)no1 [F168] | 358 nM | 
Cc1ccc(-c2noc(C[C@@H]3CCCN3)n2)cc1NC(=O)c1cnc2ccccn12 [F216] | 519 nM | 
Cc1ccc(-c2noc(C3CN(C(=O)OC(C)(C)C)CCO3)n2)cc1NC(=O)c1cnc2ccccn12 (stereo not drawn) [F175] | 728 nM | 
Cc1ccn2c(C(=O)Nc3cc(-c4noc(N5CCOCC5)n4)ccc3C)cnc2c1 [F91] |  | IC50 [3]: 64 nM
Cc1ccc(-c2noc([C@@H]3CC(F)(F)CN3)n2)cc1NC(=O)c1cnc2ccccn12 [F121] | 205 nM | 
Cc1ccc(-c2noc(C3CN(C(=O)OCC(F)(F)F)C3)n2)cc1NC(=O)c1cnc2ccccn12 [F264] | 438 nM | 
Cc1ccc(-c2noc([C@@H]3CCN3)n2)cc1NC(=O)c1cnc2ccccn12 [F136] | 543 nM | 
Cc1ccc(-c2noc([C@H]3CCCN(C(=O)OC(C)(C)C)C3)n2)cc1NC(=O)c1cnc2ccccn12 [F187] | 320 nM | 
COC(=O)NC1(c2nc(-c3ccc(C)c(NC(=O)c4cnc5ccccn45)c3)no2)COC1 [F140] | 103 nM | 
COC(=O)CS(=O)(=O)N1CC(c2nc(-c3ccc(C)c(NC(=O)c4cnc5ccccn45)c3)no2)C1 [F309] | > 10000 nM | 
Cc1ccc(-c2noc([C@@H]3CCC(=O)N3)n2)cc1NC(=O)c1cnc2ccccn12 [F191] | 465 nM | 
Cc1ccc(-c2noc([C@@H]3CCCO3)n2)cc1NC(=O)c1cnc2ccccn12 [F297] | 2790 nM | 
Cc1ccc(-c2noc(C3C[C@@H](O)CN3)n2)cc1NC(=O)c1cnc2ccc(F)cn12 (stereo partly drawn) [F305] | 8080 nM | 
COC(=O)N1CCC[C@@H]1c1nc(-c2ccc(C)c(NC(=O)c3cnc4ccccn34)c2)no1 [F212] | 170 nM | 
Cc1ccc(-c2noc(CN3CC(F)(F)C(F)(F)C3)n2)cc1NC(=O)c1cnc2ccccn12 [F42] |  | IC50 [3]: 13 nM
Cc1ccc(-c2noc(N3CCC3)n2)cc1NC(=O)c1cnc2ccccn12 [F248] | 132 nM | 
COC1CN(c2nc(-c3ccc(C)c(NC(=O)c4cnc5cc(C)ccn45)c3)no2)C1 [F254] | 111 nM | 
Cc1ccc(-c2noc(C3CCN(C(=O)OC(C)(C)C)CC3)n2)cc1NC(=O)c1cnc2ccccn12 [F105] | 505 nM | 

Compound | IC50 [1] | also measured
Cc1ccc(-c2noc(C3CN(C(=O)OC(C)(C)C)C3)n2)cc1NC(=O)c1cnc2ccccn12 [F113] | 623 nM | 
Cc1ccc(-c2noc(C3CN(C(=O)OC4(C)CC4)C3)n2)cc1NC(=O)c1cnc2ccccn12 [F126] | 891 nM | 
[2H]c1ccc2ncc(C(=O)Nc3cc(-c4noc(C5CN(C(=O)OC)C5)n4)ccc3C)n2c1 [F98] |  | IC50 [3]: 43 nM
Cc1ccc(Nc2noc([C@@H]3CCCO3)n2)cc1NC(=O)c1cnc2ccccn12 [F72] |  | IC50 [3]: 6 nM
Cc1ccc(-c2noc([C@@H]3COCCN3S(C)(=O)=O)n2)cc1NC(=O)c1cnc2ccccn12 [F165] | 362 nM | 
Cc1ccc(Nc2noc([C@H]3CCCO3)n2)cc1NC(=O)c1cnc2ccccn12 [F71] |  | IC50 [3]: 11 nM
Cc1cc(F)c(-c2noc(C3CN(S(C)(=O)=O)C3)n2)cc1NC(=O)c1cnc2ccccn12 [F232] | 489 nM | 
Cc1ccc(-c2noc([C@H]3C[C@@H](O)CN3)n2)cc1NC(=O)c1cnc2ccc(F)cn12 [F302] | 4330 nM | 
Cc1ccc(-c2noc(CNC(=O)C3CCOCC3)n2)cc1NC(=O)c1cnc2ccccn12 [F149] | 684 nM | 
Cc1ccc(-c2noc(CN3CCC(F)(F)C3)n2)cc1NC(=O)c1cnc2ccccn12 [F29] |  | IC50 [3]: 16 nM
Cc1ccc(-c2noc(C3CCN(S(C)(=O)=O)C3)n2)cc1NC(=O)c1cnc2ccccn12 (stereo not drawn) [F170] | 137 nM | 
Cc1ccc(-c2noc(C3CN(S(=O)(=O)c4c[nH]cn4)C3)n2)cc1NC(=O)c1cnc2ccccn12 [F299] | 3520 nM | 
COC(=O)N1CC(F)(F)C[C@H]1c1nc(-c2ccc(C)c(NC(=O)c3cnc4ccccn34)c2)no1 [F172] | 122 nM | 
Cc1ccc(-c2noc(C3(C)CN(C(=O)OC(C)(C)C)C3)n2)cc1NC(=O)c1cnc2ccccn12 [F239] | 831 nM | 
Cc1ccc(-c2noc(C[C@@H]3CCCN3C(=O)OC(C)(C)C)n2)cc1NC(=O)c1cnc2ccccn12 [F211] | 106 nM | 
COC1CN(Cc2nc(-c3ccc(C)c(NC(=O)c4cnc5ccccn45)c3)no2)C1 [F132] | 283 nM | 
Cc1ccc(-c2noc(C3(C)COC3)n2)cc1NC(=O)c1cnc2ccccn12 [F128] | 140 nM | 
Cc1ccc(-c2noc([C@H]3C[C@@H](O)CN3S(C)(=O)=O)n2)cc1NC(=O)c1cnc2ccc(F)cn12 [F273] | 1170 nM | 
Cc1ccc(-c2noc(C3CN(S(=O)(=O)c4cccnc4)C3)n2)cc1NC(=O)c1cnc2ccccn12 [F157] | 153 nM | 
[2H]C([2H])([2H])c1ccn2c(C(=O)Nc3cc(-c4noc(C5CN(C(=O)OC)C5)n4)ccc3C)cnc2c1 [F80, methyl 3-(3-(4-methyl-3-(7-methyl-d3-imidazo[1,2-a]pyridine-3-carboxamido)phenyl)-1,2,4-oxadiazol-5-yl)azetidine-1-carboxylate] |  | IC50 [3]: 44 nM
Cc1ccc(-c2noc(CC3CN(C(=O)OC(C)(C)C)C3)n2)cc1NC(=O)c1cnc2ccccn12 [F283] | 1630 nM | 
Cc1ccc(-c2noc(CNC(=O)N3CCOCC3)n2)cc1NC(=O)c1cnc2ccccn12 [F292] | 1930 nM | 
Cc1ccc(-c2noc([C@H]3COCCN3)n2)cc1NC(=O)c1cnc2ccccn12 [F118] | 936 nM | 
Cc1ccc(-c2noc(CN3CC(C#N)C3)n2)cc1NC(=O)c1cnc2ccccn12 [F129] | 310 nM | 
